This note sets out measurements from US20060167076A1, “Acutumine and acutumine compounds synthesis and use” (priority 2002, published 2006).

A value given as a limit tells only on which side of the number the result lay.

Assay [1] relates to scopolamine-induced memory impairments. Nature of the assay: Morris water maze test with scopolamine as amnesic agent. The format is in vivo, mouse. Conditions: 60 mg/kg p.o.; scopolamine 5 mg/kg i.p.; control animals 43 seconds. The source says:
The anti-amnesic effects of the compounds of the present invention have been evaluated using the Morris water maze test (Morris et al., Nature, 1986, 319, 774-776) in the mouse and scopolamine as amnesic agent. Kumming strain mice (18-24 g, Shanghai Experimental Animal Centre) of either sex were used. Mice were placed on the water maze (80×50×20 cm) and trained to find the platform. Following the period of one day's habituation, each mouse received 3 daily training sessions for seven days. Mice were trained to a criterion of finding the platform within 20 seconds and with <2 errors of entering a dead-end. Once a mouse met the criterion, training was reduced to one daily session until all mice met the criterion. Trained mice were randomly assigned to sub-groups. Compounds under study were dissolved in distilled water and administered by the oral route 40 minutes before behavioural testing. Scopolamine (5 mg/kg, i.p.) was injected 30 minutes before the test. The number of errors and the time for reaching the platform were recorded. Data were expressed as means±s.e.m. Statistical analysis was performed using ANOVA followed by Duncan's multiple-range test.

Assay [2] concerns animal experimental models. Nature of the assay: Mnemocognition in animal experimental models (unspecified). The format is in vivo.
The test system of assay [3] is Wistar rat. As to the kind of experiment: Object recognition in the Wistar rat. The format is in vivo. Particulars: 10 mg/kg; second session 24 hours later. The text has this: The object recognition test in the Wistar rat was initially developed by ENNACEUR and DELACOUR (Behav. Brain Res., 1988, 31, 47-59). The test is based on the spontaneous exploratory activity of the animal and has the characteristics of episodic memory in humans. This memory test is sensitive to ageing (SCALI et al., Eur. J. Pharmacol., 1997, 325, 173-180) and to cholinergic dysfunctions (BARTOLINI et al., Pharm. Biochem. Behav. 1996, 53(2), 277-283) and is based on the differences in the exploration of 2 objects of fairly similar shape—one familiar, the other new. Prior to the test, the animals are habituated to the environment (an enclosure without an object). In the course of a first session, the rats are placed (3 minutes) in the enclosure, in which there are 2 identical objects. The duration of exploration is measured for each object. In the course of the second session (3 minutes), 24 hours later, 1 of the 2 objects is replaced by a new object. The duration of exploration is measured for each object. The assessment criterion is the difference, Delta, expressed in seconds, between the exploration times for the new object and for the familiar object in the course of the second session.

The subject of assay [4] is Wistar rat. Nature of the assay: Social recognition in the Wistar rat. Particulars: 20 mg/kg; second encounter after 2 hours. The format is in vivo. The text has this: Initially described in 1982 by THOR and HOLLOWAY (J. Comp. Physiol., 1982, 29 1000-1006), the social recognition test has subsequently been proposed by various authors (DANTZER et al., Psychopharmacology, 1987, 91, 363-368; PERIO et al., Psychopharmacology, 1989, 97, 262-268) for studying the mnemocognitive effects of new compounds. The test is based on the natural expression of the olfactory memory of the rat and its natural tendency to forget and allows evaluation of memorisation, by recognition of a young congeneric animal, by an adult rat. A young rat (21 days), taken at random, is placed for 5 minutes in the cage housing an adult rat. With the aid of a video device, the experimenter observes the social recognition behaviour of the adult rat and measures its overall duration. The young rat is then removed from the adult rat's cage and is placed in its own cage until the second introduction. The adult rat is given the compound under test and, after 2 hours, is again brought into the presence (5 minutes) of the young rat. The social recognition behaviour is then observed again and its duration measured. The assessment criterion is the difference (T2−T1), expressed in seconds, between the “recognition” times of the 2 encounters.

For the molecule `CCC(=O)OC1C(OC)=CC(=O)[C@]12[C@@H](Cl)CC13C(OC)=C(OC)C(=O)CC12CCN3C` (stereo partly drawn) [Example 1, Spiro[(4S,5S)-4-(ethoxycarbonyl)-3-methoxy-2-cyclopenten-1-one-5:3(2S)-2-chloro-3aS,7aS-((2,3)-1-methylpyrrolidine)-6,7-dimethoxy-1,2,3,3a,4,7a-hexahydro-5H-inden-5-one]], the “time for reaching the platform” value in assay [1] was at most 18 s.

For `COC1=CC(=O)C2(C1O)[C@@H](Cl)CC13C(OC)=C(OC)C(=O)CC21CCN3C` (stereo partly shown) [acutumine], the mnemocognition-facilitating properties entry in assay [2] is given as “mnemocognition-facilitating properties”.

For “Spiro[(4S,5S)-4-hydroxy-3-methoxy-2-cyclopenten-1-one-5:3(2S)-2-chloro-3aS,7aS-((2,3)-1-methylpyrrolidine)-6,7-dimethoxy-1,2,3,3a,4,7a-hexahydro-5H-inden-5-one oxime] [Example 4]”, the “difference, Delta, between exploration times for the new and the familiar object” value in assay [3] is 8 s. For the same molecule, the “difference (T2−T1) between recognition times of the 2 encounters” value in assay [4] is -45 s.
